The values below are quoted from earlier work in patent US20100303877A1, “Controlled Release Hydrogel Films” (Board of Regents, The University of Texas System, priority 2009, published 2010).

This data set has as its system mammalian cells.

As to `[Ag+]` [Ag^+, silver ions], the “silver ion concentration above which cytotoxicity occurs” value is more than 10 mg per liter.
